Test results as given in US20080114007A1 (priority 2006, published 2008).

target: CSF-1R (Homo sapiens, UniProt P07333); test: Peptide (non-phosphorylated) assay, fluorescence polarization competition immunoassay; type: biochemical; settings: 0.7 nM CSF-1R, 308 μM SYEGNSYTFIDPTQ peptide, 1 mM ATP, 80 min; mean of at least three determinations; read-out: c-fms Peptide IC50
How it was run: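 Human CSF-1R kinase reaction started with ATP and run 80 min at room temperature, then stopped with EDTA. Phosphopeptide detected by fluorescence polarization competition using anti-phosphotyrosine antibody and PTK green tracer after 30 min. Controls used 4% DMSO, with EDTA added before reaction start for positive controls.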

Sequence of CSF-1R (P07333 20-972): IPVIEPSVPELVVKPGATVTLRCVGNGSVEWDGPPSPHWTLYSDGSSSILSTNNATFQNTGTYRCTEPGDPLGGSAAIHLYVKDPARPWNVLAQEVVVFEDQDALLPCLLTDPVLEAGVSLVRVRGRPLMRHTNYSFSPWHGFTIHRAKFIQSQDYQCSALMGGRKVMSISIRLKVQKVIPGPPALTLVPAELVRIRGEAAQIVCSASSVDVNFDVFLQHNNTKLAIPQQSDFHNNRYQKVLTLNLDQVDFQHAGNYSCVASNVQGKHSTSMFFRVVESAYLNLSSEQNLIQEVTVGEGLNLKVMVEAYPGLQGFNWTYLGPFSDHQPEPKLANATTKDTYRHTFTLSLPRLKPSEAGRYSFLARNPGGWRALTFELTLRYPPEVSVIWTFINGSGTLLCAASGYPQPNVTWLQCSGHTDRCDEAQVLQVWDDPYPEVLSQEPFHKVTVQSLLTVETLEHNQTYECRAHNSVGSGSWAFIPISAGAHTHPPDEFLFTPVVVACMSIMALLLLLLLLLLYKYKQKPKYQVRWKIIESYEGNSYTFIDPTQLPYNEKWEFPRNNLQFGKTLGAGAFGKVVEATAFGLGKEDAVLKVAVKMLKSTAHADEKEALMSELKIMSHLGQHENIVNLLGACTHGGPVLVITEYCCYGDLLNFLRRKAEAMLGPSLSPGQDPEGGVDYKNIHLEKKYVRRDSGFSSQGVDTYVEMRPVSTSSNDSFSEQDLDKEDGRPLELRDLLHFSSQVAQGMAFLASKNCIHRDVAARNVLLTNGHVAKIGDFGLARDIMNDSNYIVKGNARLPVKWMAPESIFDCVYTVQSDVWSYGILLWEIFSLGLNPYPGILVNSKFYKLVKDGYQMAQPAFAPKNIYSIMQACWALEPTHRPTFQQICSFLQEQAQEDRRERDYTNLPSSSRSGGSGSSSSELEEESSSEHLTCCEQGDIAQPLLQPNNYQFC

| SMILES | IC50 [nM] |
| --- | --- |
| CONC(=O)c1cn(-c2cnc3c(c2)CCC3)c2nc(Nc3ccc(CCS(C)(=O)=O)cc3)ncc2c1=O [Cpd 226, 8-(6,7-dihydro-5H-[1]pyrindin-3-yl)-2-[4-(2-methanesulfonyl-ethyl)-phenylamino]-5-oxo-5,8-dihydro-pyrido[2,3-d]pyrimidine-6-carboxylic acid methoxy-amide] | 7.7 |
| CONC(=O)c1cn(-c2cnc3c(c2)CCC3)c2nc(Nc3ccc(CCO)cc3)ncc2c1=O [Cpd 227, 8-(6,7-dihydro-5H-[1]pyrindin-3-yl)-2-[4-(2-hydroxy-ethyl)-phenylamino]-5-oxo-5,8-dihydro-pyrido[2,3-d]pyrimidine-6-carboxylic acid methoxy-amide] | 10 |
| CCc1ccc(-n2cc(C(=O)NOC)c(=O)c3cnc(Nc4cccc(NC(=O)CN(C)C)c4)nc32)cc1 [Cpd 228, 2-[3-(2-dimethylamino-acetylamino)-phenylamino]-8-(4-ethyl-phenyl)-5-oxo-5,8-dihydro-pyrido[2,3-d]pyrimidine-6-carboxylic acid methoxy-amide] | 0.68 |
| CONC(=O)c1cn(-c2ccc3c(c2)CCC3)c2nc(Nc3cccc(NC(=O)CN(C)C)c3)ncc2c1=O [Cpd 229, 2-[3-(2-dimethylamino-acetylamino)-phenylamino]-8-indan-5-yl-5-oxo-5,8-dihydro-pyrido[2,3-d]pyrimidine-6-carboxylic acid methoxy-amide] | 0.42 |
| CONC(=O)c1cn(-c2ccc3c(c2)CCC3)c2nc(Nc3cccc(S(=O)(=O)CCN(C)C)c3)ncc2c1=O [Cpd 230, 2-[3-(2-dimethylamino-ethanesulfonyl)-phenylamino]-8-indan-5-yl-5-oxo-5,8-dihydro-pyrido[2,3-d]pyrimidine-6-carboxylic acid methoxy-amide] | 1.1 |
| CNCCS(=O)(=O)c1cccc(Nc2ncc3c(=O)c(C(=O)NOC)cn(-c4ccc5c(c4)CCC5)c3n2)c1 [Cpd 231, 8-indan-5-yl-2-[3-(2-methylamino-ethanesulfonyl)-phenylamino]-5-oxo-5,8-dihydro-pyrido[2,3-d]pyrimidine-6-carboxylic acid methoxy-amide] | 0.71 |
| CCc1ccc(-n2cc(C(=O)NOC)c(=O)c3cnc(Nc4ccc(CCN5CCCC(F)(F)C5)cc4)nc32)cc1 [Cpd 232, 2-{4-[2-(3,3-difluoro-piperidin-1-yl)-ethyl]-phenylamino}-8-(4-ethyl-phenyl)-5-oxo-5,8-dihydro-pyrido[2,3-d]pyrimidine-6-carboxylic acid methoxy-amide] | 0.72 |
| CONC(=O)c1cn(-c2ccc3c(c2)CCC3)c2nc(Nc3ccc(C4=CCN(C)CC4)cc3)ncc2c1=O [Cpd 235, 8-indan-5-yl-2-[4-(1-methyl-1,2,3,6-tetrahydro-pyridin-4-yl)-phenylamino]-5-oxo-5,8-dihydro-pyrido[2,3-d]pyrimidine-6-carboxylic acid methoxy-amide] | 0.54 |
| CONC(=O)c1cn(-c2ccc3c(c2)CCC3)c2nc(Nc3ccc([C@@]4(O)CCN(C)C[C@@H]4O)cc3)ncc2c1=O [Cpd 236, 2-{4-[(3S,4S)-(3,4-dihydroxy-1-methyl-piperidin-4-yl)]-phenylamino}-8-indan-5-yl-5-oxo-5,8-dihydro-pyrido[2,3-d]pyrimidine-6-carboxylic acid methoxy-amide] | 0.47 |
| CONC(=O)c1cn(-c2ccc3c(c2)CCC3)c2nc(Nc3ccc(C4CCN(C)CC4(F)F)cc3)ncc2c1=O (stereo not drawn) [Cpd 237, 2-[4-(3,3-difluoro-1-methyl-piperidin-4-yl)-phenylamino]-8-indan-5-yl-5-oxo-5,8-dihydro-pyrido[2,3-d]pyrimidine-6-carboxylic acid methoxy-amide] | 0.71 |
| CONC(=O)c1cn(-c2ccc3c(c2)CCC3)c2nc(Nc3ccc(CCN4CCC(O)CC4)cc3)ncc2c1=O [Cpd 238, 2-{4-[2-(4-hydroxy-piperidin-1-yl)-ethyl]-phenylamino}-8-indan-5-yl-5-oxo-5,8-dihydro-pyrido[2,3-d]pyrimidine-6-carboxylic acid methoxy-amide] | 0.64 |
| CONC(=O)c1cn(-c2ccc3c(c2)CCC3)c2nc(Nc3ccc(CCN4CCC[C@@H](O)C4)cc3)ncc2c1=O [Cpd 239, 2-{4-{2-[(3R)-(3-hydroxy-piperidin-1-yl)]-ethyl}-phenylamino}-8-indan-5-yl-5-oxo-5,8-dihydro-pyrido[2,3-d]pyrimidine-6-carboxylic acid methoxy-amide] | 0.32 |
| CCc1ccc(-n2cc(C(=O)NOC)c(=O)c3cnc(Nc4ccc(CCN5CCC[C@@H](O)C5)cc4)nc32)cc1 [Cpd 240, 8-(4-ethyl-phenyl)-2-(4-{2-[(3R)-(3-hydroxy-piperidin-1-yl)]-ethyl}-phenylamino)-5-oxo-5,8-dihydro-pyrido[2,3-d]pyrimidine-6-carboxylic acid methoxy-amide] | 0.28 |
| CONC(=O)c1cn(-c2ccc3c(c2)CCC3)c2nc(Nc3ccc(CCN4CCC(F)(F)C4)cc3)ncc2c1=O [Cpd 241, 2-{4-[2-(3,3-difluoro-pyrrolidin-1-yl)-ethyl]-phenylamino}-8-indan-5-yl-5-oxo-5,8-dihydro-pyrido[2,3-d]pyrimidine-6-carboxylic acid methoxy-amide] | 1.7 |
| CCc1ccc(-n2cc(C(=O)NOC)c(=O)c3cnc(Nc4ccc(C5CCCCN5)cc4)nc32)cc1 (stereo not drawn) [Cpd 242, 8-(4-ethyl-phenyl)-5-oxo-2-(4-piperidin-2-yl-phenylamino)-5,8-dihydro-pyrido[2,3-d]pyrimidine-6-carboxylic acid methoxy-amide] | 0.59 |
| CONC(=O)c1cn(-c2ccc3c(c2)CCC3)c2nc(Nc3ccc(C4CCCCN4C)cc3)ncc2c1=O (stereo not drawn) [Cpd 243, 8-indan-5-yl-2-[4-(1-methyl-piperidin-2-yl)-phenylamino]-5-oxo-5,8-dihydro-pyrido[2,3-d]pyrimidine-6-carboxylic acid methoxy-amide] | 0.52 |
| CCN1CCCCC1c1ccc(Nc2ncc3c(=O)c(C(=O)NOC)cn(-c4ccc5c(c4)CCC5)c3n2)cc1 (stereo not drawn) [Cpd 244, 2-[4-(1-ethyl-piperidin-2-yl)-phenylamino]-8-indan-5-yl-5-oxo-5,8-dihydro-pyrido[2,3-d]pyrimidine-6-carboxylic acid methoxy-amide] | 0.64 |
| CCc1ccc(-n2cc(C(=O)NOC)c(=O)c3cnc(Nc4ccc(C5CCCCN5CC)cc4)nc32)cc1 (stereo not drawn) [Cpd 245, 8-(4-ethyl-phenyl)-2-[4-(1-ethyl-piperidin-2-yl)-phenylamino]-5-oxo-5,8-dihydro-pyrido[2,3-d]pyrimidine-6-carboxylic acid methoxy-amide] | 0.29 |
| CONC(=O)c1cn(-c2ccc3c(c2)CCC3)c2nc(Nc3ccc(C4CCCCN4)cc3)ncc2c1=O (stereo not drawn) [Cpd 246, 8-indan-5-yl-5-oxo-2-(4-piperidin-2-yl-phenylamino)-5,8-dihydro-pyrido[2,3-d]pyrimidine-6-carboxylic acid methoxy-amide] | 0.38 |
| CCc1ccc(-n2cc(C(=O)NOC)c(=O)c3cnc(Nc4cccc(OC5CN6CCC5CC6)c4)nc32)cc1 (stereo not drawn) [Cpd 247, 2-[3-(1-aza-bicyclo[2.2.2]oct-3-yloxy)-phenylamino]-8-(4-ethyl-phenyl)-5-oxo-5,8-dihydro-pyrido[2,3-d]pyrimidine-6-carboxylic acid methoxy-amide] | 0.59 |
| CCc1ccc(-n2cc(C(=O)NOC)c(=O)c3cnc(Nc4cccc(OC5CCCNC5)c4)nc32)cc1 (stereo not drawn) [Cpd 248, 8-(4-ethyl-phenyl)-5-oxo-2-[3-(piperidin-3-yloxy)-phenylamino]-5,8-dihydro-pyrido[2,3-d]pyrimidine-6-carboxylic acid methoxy-amide] | 0.43 |
| CCc1ccc(-n2cc(C(=O)NOC)c(=O)c3cnc(Nc4ccc([C@]5(O)CCN(C)C[C@H]5O)cc4)nc32)cc1 [Cpd 249, 2-{4-[(3R,4R)-(3,4-dihydroxy-1-methyl-piperidin-4-yl)]-phenylamino}-8-(4-ethyl-phenyl)-5-oxo-5,8-dihydro-pyrido[2,3-d]pyrimidine-6-carboxylic acid methoxy-amide] | 0.55 |
| CONC(=O)c1cn(-c2ccc3c(c2)CCC3)c2nc(Nc3ccc([C@]4(O)CCN(C)C[C@H]4O)cc3)ncc2c1=O [Cpd 250, 2-{4-[(3R,4R)-(3,4-dihydroxy-1-methyl-piperidin-4-yl)]-phenylamino}-8-indan-5-yl-5-oxo-5,8-dihydro-pyrido[2,3-d]pyrimidine-6-carboxylic acid methoxy-amide] | 0.39 |
| CCN1CCCC(Oc2cccc(Nc3ncc4c(=O)c(C(=O)NOC)cn(-c5ccc6c(c5)CCC6)c4n3)c2)C1 (stereo not drawn) [Cpd 251, 2-[3-(1-ethyl-piperidin-3-yloxy)-phenylamino]-8-indan-5-yl-5-oxo-5,8-dihydro-pyrido[2,3-d]pyrimidine-6-carboxylic acid methoxy-amide] | 0.93 |
| CONC(=O)c1cn(-c2ccc3c(c2)CCC3)c2nc(Nc3ccc(CCN4CC[C@@H](F)C4)cc3)ncc2c1=O [Cpd 252, 2-(4-{2-[(3R)-(3-fluoro-pyrrolidin-1-yl)]-ethyl}-phenylamino)-8-indan-5-yl-5-oxo-5,8-dihydro-pyrido[2,3-d]pyrimidine-6-carboxylic acid methoxy-amide] | 0.57 |
| CONC(=O)c1cn(-c2ccc3c(c2)CCC3)c2nc(Nc3ccc(CCN4CC[C@H](F)C4)cc3)ncc2c1=O [Cpd 253, 2-(4-{2-[(3S)-(3-fluoro-pyrrolidin-1-yl)]-ethyl}-phenylamino)-8-indan-5-yl-5-oxo-5,8-dihydro-pyrido[2,3-d]pyrimidine-6-carboxylic acid methoxy-amide] | 0.66 |

same assay, conditions: c-fms Peptide IC50, 0.7 nM CSF-1R, 308 μM SYEGNSYTFIDPTQ peptide, 1 mM ATP, 80 min; mean of at least three determinations

| SMILES | IC50 [nM] |
| --- | --- |
| CONC(=O)c1cn(-c2ccc3c(c2)CCC3)c2nc(Nc3ccc(CCN4CCC(F)(F)CC4)cc3)ncc2c1=O [Cpd 234, 2-{4-[2-(4,4-difluoro-piperidin-1-yl)-ethyl]-phenylamino}-8-indan-5-yl-5-oxo-5,8-dihydro-pyrido[2,3-d]pyrimidine-6-carboxylic acid methoxy-amide] | 1.7 |
